Laboratory results taken from US8299038B2, “Methods and compositions for treating hepatitis C virus” (Idenix Pharmaceuticals, Inc., priority 2000, dated 2012).
Several values for one entry are separate records, joined by “and”; a condition that tells them apart may be missing. Identical values can stand only once. Each block holds one compound with its values, some of them ahead of it.

Legend:
HCV = conditions: monotherapy, cited from earlier work
[1] = test system: CFU-GM (human bone marrow cells); experiment: Human bone marrow toxicity CFU-GM clonogenic assay; conditions: read-out: IC50 CFU-GM, colony formation after 14 to 18 days
[2] = test system: BFU-E (human bone marrow cells); experiment: Human bone marrow toxicity BFU-E clonogenic assay; conditions: read-out: IC50 BFU-E, colony formation after 14 to 18 days
[3] = Bioavailability assay in Cynomolgus monkeys; assay type: in vivo, cynomolgus monkey; conditions: for Norm AUC: individual monkeys, AUC normalised to dose in mg; for Mean Norm AUC: mean of 3 monkeys
Procedure: Within 1 week prior to the study initiation, the cynomolgus monkey was surgically implanted with a chronic venous catheter and subcutaneous venous access port (VAP) to facilitate blood collection and underwent a physical examination including hematology and serum chemistry evaluations and the body weight was recorded. […] Each dosing syringe was weighed before dosing to gravimetrically determine the quantity of formulation administered. Urine samples were collected via pan catch at the designated intervals (approximately 18-0 hours pre-dose, 0-4, 4-8 and 8-12 hours post-dosage) and processed.

Compound: NC(=O)c1ncn([C@@H]2O[C@H](CO)[C@@H](O)[C@H]2O)n1 [ribavirin, 1-β-D-ribofuranosyl-1-1,2,4-triazole-3-carboxamide]
effect on serum levels of HCV-RNA (HCV; HCV patients): does not lower serum levels of HCV-RNA
patients in whom serum amino transferase levels are reduced to normal (HCV): 40%

Compound: C[C@@]1(O)[C@H](O)[C@@H](CO)O[C@H]1n1cnc2c(N)ncnc21 [β-D-2′-CH3-riboA, 2′-C-methylriboadenine]
IC50 [1]: > 100 µM
IC50 [2]: > 100 µM

CL ([3]; IV 10 mg/kg): 1.28 ± 0.48 L/h/kg
Cmax ([3]; IV 10 mg/kg): 6945.6 ± 1886.0 ng/mL
T1/2 ([3]; IV 10 mg/kg): 7.9 ± 5.4 h
Tmax ([3]; IV 10 mg/kg): 0.25 ± 0.00 h
Vss ([3]; IV 10 mg/kg): 2.09 ± 0.54 L/kg
AUC ([3]; IV 10 mg/kg, mean ± spread): 8758.0 ± 4212.9 ng·h/mL
Mean Norm AUC ([3]; IV): 284.9 ng·h/mL/mg
Cmax ([3]; PO 10 mg/kg): 217.7 ± 132.1 ng/mL
T1/2 ([3]; PO 10 mg/kg): 10.3 ± 4.1 h
Tmax ([3]; PO 10 mg/kg): 2.00 ± 1.00 h
AUC ([3]; PO 10 mg/kg, mean ± spread): 1166.0 ± 589.6 ng·h/mL
Mean Norm AUC ([3]; PO): 38.8 ng·h/mL/mg
F (oral bioavailability) ([3]; Table 2, PO vs IV mean norm AUC): 13.6%
F ([3]; Table 3, 10 mg/kg PO vs IV): 13.8%
Compound: C[C@@]1(O)[C@H](O)[C@@H](CO)O[C@H]1n1cnc2c(=O)[nH]c(N)nc21 [β-D-2′-CH3-riboG]
IC50 [1]: > 10 µM
IC50 [2]: > 100 µM
AUC ([3]; IV bolus 10 mg/kg, individual monkeys 1-3, 10 mg/kg): 6079 ng·h/mL and 13614 ng·h/mL and 6581 ng·h/mL
Norm AUC ([3]; IV): 293.4 ng·h/mL/mg and 293.2 ng·h/mL/mg and 268.3 ng·h/mL/mg
AUC ([3]; PO gavage 10 mg/kg, individual monkeys 1-3, 10 mg/kg): 758 ng·h/mL and 898 ng·h/mL and 1842 ng·h/mL
Norm AUC ([3]; PO): 26.1 ng·h/mL/mg and 29.0 ng·h/mL/mg and 61.3 ng·h/mL/mg
